Our source for the IC50 values is patent US20220378928A1, “A Camptothecin Drug and Its Antibody Conjugate Thereof” (priority 2020, published 2022).

Common to all, as to test: Camptothecin drug cellular activity test (MTS cell proliferation)
Common to all, as to assay type: cell-based, human

In one assay the test system is U87-MG. The note with it: read-out: Cell Viability, U87-MG. As to the method: (§1) The cytotoxic activity of camptothecin drugs was determined by the following experimental process: Camptothecin drugs were added to cell culture media that grows human tumors cells that express A431, Fadu, Bxpc-3 (EGFR-positive cells) and U87-MG, SW620 (negative control cells). Cell survival rates were measured after the cells were cultured for 72 hours. Cell-based in vitro experiments are used to determine cell survival rate, cytotoxicity, and programmed cell death induced by the camptothecin drug of the present application.
(§2) The in vitro efficacy of the camptothecin drugs was determined by cell proliferation test. CellTiter 96® Aqueous One Solution Cell Proliferation Assay is commercially available (Promega Corp., Madison, Wis.). CellTiter 96® AQueous One Solution Cell Proliferation Assay(a) is a colorimetric method to detect the number of living cells in cell proliferation and cytotoxicity experiments. This reagent contains a novel tetrazolium compound [3-(4, 5-dimethylthiazol-2-yl)-5-(3-carboxymethoxyphenyl)-2-(4-sulfophenyl)-2H-tetrazolium, inner salt; MTS] and an electronic coupling agent (phenazine ethosulfate; PES). PES has enhanced chemical stability, which allows it to be mixed with MTS to form a stable solution. This convenient “single solution” mode is an improvement on the basis of the first generation CellTiter 96*AQueous Assay. The electronic coupling agent PMS and MTS solution used in the CellTiter 96*AQueous Assay are provided separately. MTS (Owen's reagent) is reduced by cell organisms into a colored formazan product (Illustration 1), which can be directly dissolved in the culture medium.
(§3) The conversion in all likelihood is completed under the action of NADPH or NADH produced by dehydrogenases in metabolically active cells. When testing, just add a small amount of CellTiter 96® AQueous One Solution Reagent directly to the culture plate well, incubate for 1-4 hours, and then read the absorbance value at 490 nm with a microplate reader.
(§4) The amount of formazan detected at 490 nm is directly proportional to the number of viable cells in culture. Since the formazan product of MTS is soluble in tissue culture medium, CellTiter 96® AQueous One Solution Assay has fewer steps than MTT or INT methods.
(§5) In the present application, A431, Fadu, Bxpc-3 (EGFR positive expressing cells) and U87-MG, SW620 (negative control cells) are used as the research system for in vitro drug efficacy detection. In a 96-well plate, use an appropriate cell density for plating, and after 24 hours, add camptothecin. After 24 hours, dilute the camptothecin drug with the test medium (1 uM start, 5-fold dilution, 9 concentrations, add test medium in the tenth column as a blank control), and add the diluted camptothecin drug to the corresponding cell wells. The cell wells were then shaken with a microplate shaker (model: MX100-4A) for 3 minutes at a shaking speed of 550 rpm/min. After shaking, they were placed in a carbon dioxide incubator and incubated for 3 days. After 3 days, add 20 uL MTS (Promega, G3581) to each well for 2 hours, and the microplate reader (Molecular Device, model: SpectraMAX190) reads at […]. By detecting the activity of dehydrogenase in mitochondria, the inhibitory effect of camptothecin drugs on cell proliferation was evaluated.

For the next assay, the system named is SW620. To be noted: read-out: Cell Viability, SW620. The method, then: as §1, §2, §3, §4, §5
The next assay concerns A431. The note with it: read-out: Cell Viability, A431. The method, then: as §1, §2, §3, §4, §5
For a further assay, the system named is Fadu. To be noted: read-out: Cell Viability, Fadu. The method, then: as §1, §2, §3, §4, §5
The subject of the next assay is BXPC-3. The note with it: read-out: Cell Viability, BXPC-3. As to the method: as §1, §2, §3, §4, §5
Where [1] appears, read: Homo sapiens, U-87 MG, 72 h, U87-MG, negative control cells, 3 days incubation, MTS.
[2] abbreviates: Homo sapiens, SW-620, 72 h, SW620, negative control cells, 3 days incubation, MTS.
[3] abbreviates: Homo sapiens, A-431, 72 h, A431, EGFR-positive cells, 3 days incubation, MTS.
Setting [4] is: Homo sapiens, 72 h, Fadu, EGFR-positive cells, 3 days incubation, MTS.
[5] abbreviates: Homo sapiens, 72 h, BXPC-3, EGFR-positive cells, 3 days incubation, MTS.

Where two headings read alike, the source gives them in different places.

For the compound `CC[C@@]1(O)C(=O)OCc2c1cc1n(c2=O)Cc2c-1nc1cc(F)c(C)c3c1c2[C@@H](NC(=O)[C@H](C)O)CC3` [Compound 2], the IC50 in the assay on U87-MG (setting [1]) is 7.4 nM; in the assay on SW620 (setting [2]), 10.4 nM; in the assay on A431 (setting [3]) it was 40.9 nM; in the assay with Fadu (setting [4]), 11.1 nM; in the assay with BXPC-3 (setting [5]), 38.8 nM.
As to `CC[C@@]1(O)C(=O)OCc2c1cc1n(c2=O)Cc2c-1nc1cc(F)c(C)c3c1c2[C@H](NC(=O)[C@H](O)C(F)(F)F)CC3` [Compound 12], the IC50 was determined as 0.06 nM in the assay on U87-MG (setting [1]); 0.06 nM in the assay with SW620 (setting [2]); 15.5 nM in the assay with A431 (setting [3]); 0.002 nM with Fadu (setting [4]); 1.6 nM in the assay on BXPC-3 (setting [5]).
On to `CC[C@@]1(O)C(=O)OCc2c1cc1n(c2=O)Cc2c-1nc1cc(F)c(C)c3c1c2[C@H](NC(=O)[C@@H](O)C(F)(F)F)CC3` [Compound 13], for which the IC50 with U87-MG (setting [1]) is 0.32 to 1.6 nM; in the assay with SW620 (setting [2]), 1.06 nM; with A431 (setting [3]), 6.37 nM; in the assay on Fadu (setting [4]), 0.06 nM; in the assay on BXPC-3 (setting [5]) it was 40 nM.
Turning to `CC[C@@]1(O)C(=O)OCc2c1cc1n(c2=O)Cc2c-1nc1cc(F)c(C)c3c1c2[C@@H](NC(=O)C1(O)CCCC1)CC3` [Compound 25], the IC50 with U87-MG (Homo sapiens, U-87 MG, 72 h) was 10.4 nM; with SW620 (Homo sapiens, SW-620, 72 h) it was 1.5 nM; with A431 (Homo sapiens, A-431, 72 h), 11.7 nM; with Fadu (Homo sapiens, FaDu, 72 h) it was 41 nM; with BXPC-3 (Homo sapiens, BXPC-3, 72 h), 15.8 nM.
On to `CC[C@@]1(O)C(=O)OCc2c1cc1n(c2=O)Cc2c-1nc1cc(F)c(C)c3c1c2[C@@H](NC(=O)C(O)c1ccccc1)CC3` (stereo partly drawn) [Compound 28], for which the IC50 in the assay with U87-MG (Homo sapiens, U-87 MG, 72 h) turned out to be 18.3 nM; in the assay on SW620 (Homo sapiens, SW-620, 72 h) it was 11.9 nM; in the assay with A431 (Homo sapiens, A-431, 72 h), 5.12 nM; in the assay on Fadu (Homo sapiens, FaDu, 72 h), 14.2 nM; with BXPC-3 (Homo sapiens, BXPC-3, 72 h), 81 nM.
On to `CC[C@@]1(O)C(=O)OCc2c1cc1n(c2=O)Cc2c-1nc1cc(F)c(C)c3c1c2[C@@H](NC(=O)[C@H](O)c1cc(F)cc(F)c1)CC3` [Compound 29], for which the IC50 turned out to be 23.6 nM with U87-MG (Homo sapiens, U-87 MG, 72 h); 2.15 nM in the assay on SW620 (Homo sapiens, SW-620, 72 h); 19.6 nM in the assay with A431 (Homo sapiens, A-431, 72 h); 41.3 nM with Fadu (Homo sapiens, FaDu, 72 h); 90.1 nM in the assay with BXPC-3 (Homo sapiens, BXPC-3, 72 h).
The matching figures for `CC[C@@]1(O)C(=O)OCc2c1cc1n(c2=O)Cc2c-1nc1cc(F)c(C)c3c1c2[C@@H](NC(=O)[C@H](O)c1ccc2c(c1)OCO2)CC3` [Compound 30]: 29.9 nM, 2.25 nM, 19.9 nM, 19.2 nM and 34.2 nM.
For the compound `CC[C@H](O)C(=O)N[C@H]1CCc2c(C)c(F)cc3nc4c(c1c23)Cn1c-4cc2c(c1=O)COC(=O)[C@]2(O)CC` [Compound 31], the IC50 in the assay on U87-MG (Homo sapiens, U-87 MG, 72 h) turned out to be 10.8 nM; with SW620 (Homo sapiens, SW-620, 72 h), 17.5 nM; in the assay on A431 (Homo sapiens, A-431, 72 h), 14.8 nM; in the assay with Fadu (Homo sapiens, FaDu, 72 h) it was 17.5 nM; in the assay with BXPC-3 (Homo sapiens, BXPC-3, 72 h), 55.4 nM.
Regarding `CCc1c2c(nc3ccc(O)cc13)-c1cc3c(c(=O)n1C2)COC(=O)[C@]3(O)CC` [SN38, reference compound], the IC50 in the assay on U87-MG (U87-MG, negative control cells, 3 days incubation, MTS) turned out to be 15.7 nM; in the assay with SW620 (SW620, negative control cells, 3 days incubation, MTS), 3.28 nM; in the assay with A431 (A431, EGFR-positive cells, 3 days incubation, MTS), 13.6 nM; with Fadu (Fadu, EGFR-positive cells, 3 days incubation, MTS), 42.1 nM; in the assay on BXPC-3 (BXPC-3, EGFR-positive cells, 3 days incubation, MTS) it was 120 nM.
